Values of other authors, collected in patent publication US20060264496A1, “Substituted indoline and indole derivatives” (priority 2003, published 2006).

Legend:
amygdala kindling model = details: complex partial seizures
[1] = tested on: electrically induced seizures, seizures induced chemically by pentylenetetrazole, picrotoxin and N-methyl-D-aspartate (NMDA), DBA/2 mouse; details: oral and intraperitoneal administration, rats and mice
[2] = tested on: K(+) current in neuronal cells
hippocampal kindling = details: rat
[3] = tested on: kainic acid-induced status epilepticus; details: rat, following kainic acid-induced status epilepticus
[4] = tested on: animal models of neuropathic pain
[5] = tested on: animal models of anxiety-like behaviour; details: some animal models
epileptic patients = details: clinical trials
[6] = tested on: animal models of ethanol withdrawal syndrome

CCOC(=O)Nc1ccc(NCc2ccc(F)cc2)cc1N [Retigabine, N-(2-amino-4-(4-fluorobenzylamino)-phenyl)carbamic acid ethyl ester]
activity in amygdala kindling model (amygdala kindling model): active | anticonvulsant activity [1]: active | activation of K(+) current [2]: activate a K(+) current | progression of hippocampal kindling (hippocampal kindling): delay the progression of hippocampal kindling | limbic neurodegeneration and expression of markers of apoptosis [3]: prevent limbic neurodegeneration and the expression of markers of apoptosis | effect in neuropathic pain models [4]: beneficial | activity in anxiety-like behaviour models [5]: active | incidence of seizures (epileptic patients): effectiveness in reducing the incidence of seizures

NCC1(CC(=O)O)CCCCC1 [gabapentin]
effect in ethanol withdrawal syndrome models [6]: very effective
